According to patent US12018029B2, “Hexahydropyrrolo[3,4-c]pyrrole derivatives useful as LOX inhibitors” (THE INSTITUTE OF CANCER RESEARCH: ROYAL CANCER HOSPITAL, priority 2018, dated 2024):
Where two headings read alike, the source gives them in different places. One block for each compound: values may come before it.

Columns and labels:
[1] = biological target: T1, LOX (Mus musculus, UniProt P28301); test: LOX activity in cysts assay (roGFP2 LOX biosensor in MDCK cysts); assay type: cell-based; settings: for inhibition at 10 µM: read-out: LOX biosensor inhibition (cyst) @ 10 μM; for IC50: read-out: LOX biosensor IC50 (cyst)
T1 construct: Full length LOX cDNA was then PCR cloned into pEGFP-N1 (Clonetech), or biosensor vector proGFP2-N1; expressed in transfected cells; host or cells: MDCK cells grown as cysts on Matrigel
T1 sequence (P28301 163-411): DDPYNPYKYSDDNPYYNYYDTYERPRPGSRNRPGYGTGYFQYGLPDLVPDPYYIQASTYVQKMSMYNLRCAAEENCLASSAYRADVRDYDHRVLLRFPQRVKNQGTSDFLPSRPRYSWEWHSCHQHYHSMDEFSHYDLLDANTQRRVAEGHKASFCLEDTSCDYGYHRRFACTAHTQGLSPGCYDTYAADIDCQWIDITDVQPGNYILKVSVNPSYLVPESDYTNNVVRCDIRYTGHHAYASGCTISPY
Method: LOX Activity in Cysts Assay (Tang et al, 2017).
Cell Culture and Transfection
Cell lines were purchased from American Type Culture Collection (ATCC). […] MDCK cell lines were cultured in Dulbecco's Modified Eagle Medium (DMEM):F12 media supplemented with 10% foetal bovine serum (FBS) and 1% Penicillin Streptomycin solution (Pen Strep). Cells were incubated at 37° C. in a humidified incubator with 5% CO2. Lipofectamine 3000 or lentivirus was used to transfect MDCK cells with GFP constructs and cells were selected with G418 (Life Technologies) at 5 mg/ml. Cell culture reagents were purchased from Life Technologies.
To produce MDCK cysts, cells were cultured on Matrigel (Corning) with 2% Matrigel supplemented in DMEM with 10% FBS. Cysts were allowed to form for 10 days before subsequent studies.
Cloning of LOX Expression Constructs
Mouse LOX cDNA was purchased from OriGene. Full length LOX cDNA was then PCR cloned into pEGFP-N1 (Clonetech), or biosensor vector proGFP2-N1 (Hanson, 2004) using the following primers, […] (forward primer) and […] (reverse primer). For the insertion into pEGFP-N1 or proGFP2-N1, NheI and XhoI restriction sites were added to forward and reverse primers accordingly. Mutant LOX constructs were made using QuickChange II site-directed mutagenesis kit (Agilent Technologies) following manufacture's protocol using LOX-GFP as template. To generate, roGFP2 versions of LOX mutant constructs, LOX mutant cDNA was transferred from pEGFP-N1 to proGFP2-N1 using NheI and XhoI.
Confocal Imaging and Imaging Analysis
Photomicrographs of live MDCK cysts with a Leica TCS SP8 X confocal system were used to image the biosensor. The oxidised biosensor was excited using a 405 nm laser, while the reduced biosensor was excited with a 488 nm laser. Emission of the biosensor was recorded at 500 nm˜530 nm range using sequential scans. Ratio images were generated following a published protocol {Kardash, 2011 #376}. Note, while the published protocol generates YFP/CFP ratio images, we used it to generate Oxidised/Reduced (roGFP2 ratio) ratio images. The roGFP2 ratio at the basal surface of MDCK cysts was used to indicate LOX inhibition. LOX inhibitors were added 30 min prior to imaging.
The inhibition of LOX in cysts treated with LOX inhibitors compared to control (DMSO vehicle treated) cysts is shown in Table 2. For clarity, readout for DMSO treated cysts represents 0% inhibition (no inhibition) and readout for BAPN at 1 mM is used as 100% inhibition (full inhibition).

[2] = tested on: PDAC KPC TRP53 R172H (p53 mut) cells; test: PDAC allograft, primary tumour, R172H (p53 mut); assay type: in vivo, mouse; settings: ratio of average tumour volume treated/vehicle; 200 mg/kg po qd; p<0.05
Method: (§1) All procedures involving animals were approved by the Animal Welfare and Ethical Review Body of the Institute of Cancer Research and Cancer Research UK Manchester Institute in accordance with National Home Office regulations under the Animals (Scientific Procedures) Act 1986 and according to the guidelines of the Committee of the National Cancer Research Institute Tumour size was determined by caliper measurements of tumour length, width and depth and volume was calculated as volume=0.5236×length×width×depth (mm).
PDAC allografts: CD1 nu/nu female mice at 6 weeks of age were inoculated subcutaneously in the right flank with 2×10^6 PDAC KPC TRP53 R172H (p53 mut) cells at 100 ul suspension per animal. […] Tumours and weights are measured twice weekly using calipers. […] Frozen samples kept at −80 degree centigrade until being analysed and the fixed samples stained according to the desired marker.
(§2) For therapeutic efficacy assessment, the ratio of average tumour volume between compound treated and vehicle control treated (T/C) is calculated. […] The efficacy of LOX inhibitors described in this invention, as measured by T/C in a pancreatic cancer model, a colorectal cancer model and a breast cancer model is shown in Table 3 and is significant (p<0.05) for all the data presented.

[3] = tested on: PDAC KP^flC (LOX H1 clone) cells; test: PDAC allograft, primary tumour, p53 wt, LOX o/e; assay type: in vivo, mouse; settings: ratio of average tumour volume treated/vehicle; 200 mg/kg po qd; p<0.05
[4] = tested on: SW620 human colorectal carcinoma cells (mutant RAS); test: SW620 xenografts, primary tumour; assay type: in vivo; settings: ratio of average tumour volume treated/vehicle; 200 mg/kg po qd; p<0.05
Method: as §1
SW620 xenografts: NCr mice were inoculated subcutaneously in the right flank with 5×10^6 SW620 cells at 100 ul suspension per animal. Groups of 7-8 mice were assigned to treatment following stratified allocation of tumour volumes with a median size of circa 100 mm^3. […] Tumours and weights are measured twice weekly using calipers. […] Frozen samples are kept at −80 degree centigrade until being analysed and the fixed samples stained according to the desired marker.
as §2

[5] = tested on: MDA-MB-231 human breast adenocarcinoma; test: MDA-MB-231 xenografts, primary tumour; assay type: in vivo; settings: ratio of average tumour volume treated/vehicle; 200 mg/kg po qd; p<0.05
Method: as §1
MDA-MB-231 xenografts. […] Tumours and weights are measured twice weekly using calipers and the animals can be imaged using non-invasive method by bioluminescence using IVIS 200 imaging machine, weekly using 150 mg/kg luciferin administrate intraperitoneal or subcutaneous. […] Frozen samples kept at −80 degree centigrade until being analyzed and the fixed samples stained according to desired marker.
as §2

[6] = tested on: MMTV-PyMT mammary tumours; test: MMTV-PyMT transgenic mouse breast cancer model, primary tumour; assay type: in vivo, mice; settings: ratio of average tumour volume treated/vehicle; @67 mpk po qd; p<0.05
Method: as §1
(§3) LOX Inhibitor Treatment of a Transgenic Mouse Breast Cancer Model
MMTV-PyMT (Guy et al, 1992) (FVB) female mice were randomized by non-statistical methods to LOX inhibitor treatment groups from day 70 post-birth, when animals had no detectable tumour. […] Tumour size was determined unblinded by caliper measurements of tumour length, width and depth and volume was calculated as 0.5236×length×width×depth (mm). […]
as §2

[7] = tested on: MMTV-PyMT lung metastases; test: MMTV-PyMT transgenic mouse breast cancer model, lung metastases; assay type: in vivo, mice; settings: @67 mpk po qd, p<0.05
Method: as §3
MMTV-PyMT (Guy et al, 1992) (FVB) female mice were randomized by non-statistical methods to LOX inhibitor treatment groups from day 70 post-birth, when animals had no detectable tumour. Mice were treated daily by oral gavage with LOX inhibitor in vehicle, or daily vehicle (5% DMSO/2.5% Tween20 in water) by oral gavage. Tumour size was determined unblinded by caliper measurements of tumour length, width and depth and volume was calculated as 0.5236×length×width×depth (mm). In all experiments, mice were humanely killed and mammary tumours and lungs were collected when the primary tumours reached ethical limits or signs of ill health.
For lung metastases quantification, all mouse tissue samples were fixed in 10% formalin (Sigma) and embedded in paraffin. […] Lung metastases number was counted and area was measured using ImageScope. […] The ratio of average metastases surface between compound treated and vehicle control treated (T/C) is calculated. The ratio of average metastases numbers between compound treated and vehicle control treated (T/C) is also calculated. […] The antimetastatic efficacy of LOX inhibitors described in this invention, as measured by T/C in a model of breast cancer metastasizing to lungs is shown in Table 3 and is significant (p<0.05) for all the data presented.

[8] = 10 μM, MDCK cysts, DMSO = 0% inhibition, BAPN at 1 mM = 100% inhibition, inhibitors added 30 min prior to imaging

Compound: CCOc1ccc(N2C[C@H]3CN(C(=O)Oc4ccc([N+](=O)[O-])cc4)C[C@H]3C2)cc1 [Example 18, 4-Nitrophenyl 5-(4-ethoxyphenyl)hexahydropyrrolo[3,4-c]pyrrole-2(1H)-carboxylate]
- inhibition at 10 µM [1, 8]: 97%

Compound: C[C@@]12CN(C(=O)NCCO)C[C@]1(C)CN(c1ccc(N3CCS(=O)(=O)CC3)cc1)C2 [Example 30, cis-5-(4-(1,1-Dioxidothiomorpholino)phenyl)-N-(2-hydroxyethyl)-3a,6a-dimethylhexahydropyrrolo[3,4-c]pyrrole-2(1H)-carboxamide]
- inhibition at 10 µM [1, 8]: 59%

Compound: CCOc1ccc(N2C[C@H]3CN(C(=O)NCCO)C[C@H]3C2)cc1 [Example 1, cis-5-(4-Ethoxyphenyl)-N-(2-hydroxyethyl)hexahydropyrrolo[3,4-c]pyrrole-2(1H)-carboxamide]
- IC50 ([1]; MDCK cysts): < 560 nM
- T/C, PDAC (mouse pancreatic carcinoma) primary tumour a) R172H (p53mut) [2]: a) 0.54
- T/C, PDAC (mouse pancreatic carcinoma) primary tumour b) p53wt, LOX o/e [3]: b) 0.35
- T/C, SW620 human colorectal carcinoma cells (mutant RAS) - primary tumour [4]: 0.55
- T/C, MDA-MB-231 human breast adenocarcinoma - primary tumour [5]: 0.29
- T/C, MMT-PyMT breast transgenic model - primary tumour [6]: 0.3
- T/C, MMT-PyMT breast transgenic model - metastases a) Count ([7]; ratio of average lung metastases numbers treated/vehicle): a) 0.14
- T/C, MMT-PyMT breast transgenic model - metastases b) Area ([7]; ratio of average lung metastases surface treated/vehicle): b) 0.02

Compound: CCOc1ccc(N2C[C@]3(C)CN(C(=O)NCCO)C[C@]3(C)C2)cc1 [Example 3, cis-5-(4-Ethoxyphenyl)-N-(2-hydroxyethyl)-3a,6a-dimethylhexahydropyrrolo[3,4-c]pyrrole-2(1H)-carboxamide]
- IC50 ([1]; MDCK cysts): 1620 nM
- inhibition at 10 µM ([1]; MDCK): 100%
- T/C, PDAC (mouse pancreatic carcinoma) primary tumour a) R172H (p53mut) [2]: a) 0.58
- T/C, PDAC (mouse pancreatic carcinoma) primary tumour b) p53wt, LOX o/e [3]: b) 0.42

The next lines start with the values.

- inhibition at 10 µM [1, 8]: 94%
Compound: C[C@@]12CN(C(=O)NCCO)C[C@]1(C)CN(c1ccc(N3CCN(S(C)(=O)=O)CC3)cc1)C2 [Example 28, cis-N-(2-Hydroxyethyl)-3a,6a-dimethyl-5-(4-(4-(methylsulfonyl)piperazin-1-yl)phenyl)hexahydropyrrolo[3,4-c]pyrrole-2(1H)-carboxamide]

- inhibition at 10 µM [1, 8]: 72%
Compound: CCOc1ccc(N2C[C@H]3CN(C(=O)N4CCC(C#N)CC4)C[C@H]3C2)cc1 [Example 42, 1-(cis-5-(4-ethoxyphenyl)octahydropyrrolo[3,4-c]pyrrole-2-carbonyl)piperidine-4-carbonitrile]

- inhibition at 10 µM [1, 8]: 100%
Compound: CCOc1ccc(N2C[C@H]3CN(C(=O)N4CCOCC4)C[C@H]3C2)cc1 [Example 37]

- inhibition at 10 µM [1, 8]: 100%
Compound: N#CCCCN1C[C@@H]2CN(c3ccc(N4CCS(=O)(=O)CC4)cc3)C[C@@H]2C1 [Example 32, cis-4-(5-(4-(1,1-Dioxidothiomorpholino)phenyl)hexahydropyrrolo[3,4-c]pyrrol-2(1H)-yl)butanenitrile]

- inhibition at 10 µM [1, 8]: 100%
Compound: O=C(NC1CCCCC1)N1C[C@@H]2CN(c3ccc(N4CCS(=O)(=O)CC4)cc3)C[C@@H]2C1 [Example 9, cis-N-Cyclohexyl-5-(4-(1,1-dioxidothiomorpholino)phenyl)hexahydropyrrolo[3,4-c]pyrrole-2(1H)-carboxamide]

- inhibition at 10 µM [1, 8]: 65%
Compound: CCOc1ccc(N2C[C@H]3CN(CCCC#N)C[C@H]3C2)cc1 [Example 2, cis-4-(5-(4-Ethoxyphenyl)hexahydropyrrolo[3,4-c]pyrrol-2(1H)-yl)butanenitrile]
